# Data as given in patent publication US12077503B2, “Substituted cyclic amides and their use as herbicides” (FMC CORPORATION, priority 2015, dated 2024).
# What was measured:
# Format in all cases: in vivo
# [1] = test system: ducksalad (Heteranthera limosa); assay: Test B flooded paddy test; details: Heteranthera limosa, 250 g ai/ha, Flood; 0 to 100 scale where 0 is no effect and 100 is complete control; read-out: Ducksalad plant response rating
# In short: (§1)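 Visual ratings (0 none to 100 complete control) are relative to untreated plants, taken 13–15 d after treatment in a greenhouse. Test material went straight into floodwater standing 3 cm above the soil, kept constant, on plants at the 2-leaf stage.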
# rice (Oryra sativa) = assay: Test B flooded paddy test; details: Oryza sativa, 250 g ai/ha, Flood; 0 to 100 scale where 0 is no effect and 100 is complete control; read-out: Rice plant response rating
# In short: as §1
# [2] = test system: sedge, umbrella (small-flower umbrella sedge, Cyperus difformis); assay: Test B flooded paddy test; details: Cyperus difformis, 250 g ai/ha, Flood; 0 to 100 scale where 0 is no effect and 100 is complete control; read-out: Sedge, Umbrella plant response rating
# In short: as §1
# [3] = test system: barnyardgrass (Echinochloa crus-galli); assay: Test B flooded paddy test; details: Echinochloa crus-galli, 250 g ai/ha, Flood; 0 to 100 scale where 0 is no effect and 100 is complete control; read-out: Barnyardgrass plant response rating
# In short: as §1
# [4] = test system: giant foxtail (Setaria faberii); assay: Test A preemergence; details: Setaria faberi, pre-emergence, 240 h, 0 to 100 scale where 0 is no effect and 100 is complete control, read-out: Foxtail, Giant plant response rating
# In short: (§2)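 Ratings of 0 (no effect) to 100 (complete control) come from visual comparison with untreated controls roughly 10 d after treatment. Test chemicals, formulated in a non-phytotoxic solvent mixture with surfactant, were applied either as a preemergence directed soil spray on seeded soil or postemergence to one- to two-leaf plants 2 to 10 cm tall.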
# [5] = test system: ragweed (common ragweed, Ambrosia elatior); assay: Test A preemergence; details: Ambrosia artemisiifolia, pre-emergence, 240 h, 0 to 100 scale where 0 is no effect and 100 is complete control, read-out: Ragweed plant response rating
# In short: as §2
# [6] = test system: pigweed (Amaranthus retroflexus); assay: Test A preemergence; details: Amaranthus retroflexus, pre-emergence, 240 h, 0 to 100 scale where 0 is no effect and 100 is complete control, read-out: Pigweed plant response rating
# [7] = test system: barnyardgrass (Echinochloa crus-galli); assay: Test A preemergence; details: Echinochloa crus-galli, pre-emergence, 240 h, 0 to 100 scale where 0 is no effect and 100 is complete control, read-out: Barnyardgrass plant response rating
# In short: as §2
# Kochia (Kochia scoparia) [8] = assay: Test A preemergence; details: Bassia scoparia, pre-emergence, 240 h, 0 to 100 scale where 0 is no effect and 100 is complete control, read-out: Kochia plant response rating
# In short: as §2
# [9] = test system: ryegrass, Italian (Italian ryegrass, Lolium multiflorum); assay: Test A preemergence; details: Lolium multiflorum, pre-emergence, 240 h, 0 to 100 scale where 0 is no effect and 100 is complete control, read-out: Ryegrass, Italian plant response rating
# In short: as §2
# [10] = test system: giant foxtail (Setaria faberii); assay: Test A postemergence; details: Setaria faberi, post-emergence, 240 h
# In short: as §2
# corn (Zea mays) = assay: Test A postemergence; details: Zea mays, post-emergence, 240 h
# In short: as §2
# [11] = test system: blackgrass (Alopecurus myosuroides); assay: Test A postemergence; details: Alopecurus myosuroides, post-emergence, 240 h
# In short: as §2
# [12] = test system: ragweed (common ragweed, Ambrosia elatior); assay: Test A postemergence; details: Ambrosia artemisiifolia, post-emergence, 240 h
# In short: as §2
# [13] = test system: wheat (Triticum aestivum); assay: Test A postemergence; details: Triticum aestivum, post-emergence, 240 h
# In short: as §2
# [14] = test system: pigweed (Amaranthus retroflexus); assay: Test A postemergence; details: Amaranthus retroflexus, post-emergence, 240 h
# In short: as §2
# [15] = test system: barnyardgrass (Echinochloa crus-galli); assay: Test A postemergence; details: Echinochloa crus-galli, post-emergence, 240 h
# In short: as §2
# Kochia (Kochia scoparia) [16] = assay: Test A postemergence; details: Bassia scoparia, post-emergence, 240 h
# In short: as §2
# [17] = test system: ryegrass, Italian (Italian ryegrass, Lolium multiflorum); assay: Test A postemergence; details: Lolium multiflorum, post-emergence, 240 h
# In short: as §2
# [18] = 125 g ai/ha, preemergence, approx. 10 d
smiles,measurement,setting,value
CN1C[C@H](c2cc(C(F)F)cs2)[C@@H](C(=O)Nc2cccc(C#N)c2F)C1=O [Compound 1093],pest or weed control at 250 g/ha,[1],80%
same,pest or weed control at 250 g/ha,rice (Oryra sativa),0%
same,pest or weed control at 250 g/ha,[2],0%
same,pest or weed control at 250 g/ha,[3],60%
same,pest or weed control at 31 g/ha,"[4]; 31 g ai/ha, Preemergence",100%
same,pest or weed control at 125 g/ha,[4]; [18],100%
same,pest or weed control at 31 g/ha,"[5]; 31 g ai/ha, Preemergence",0%
same,pest or weed control at 125 g/ha,[5]; [18],20%
same,pest or weed control at 31 g/ha,"[6]; 31 g ai/ha, Preemergence",0%
same,pest or weed control at 125 g/ha,[6]; [18],80%
same,pest or weed control at 31 g/ha,"[7]; 31 g ai/ha, Preemergence",40%
same,pest or weed control at 125 g/ha,[7]; [18],90%
same,pest or weed control at 31 g/ha,"Kochia (Kochia scoparia) [8]; 31 g ai/ha, Preemergence",0%
same,pest or weed control at 125 g/ha,Kochia (Kochia scoparia) [8]; [18],50%
same,pest or weed control at 31 g/ha,"[9]; 31 g ai/ha, Preemergence",0%
same,pest or weed control at 125 g/ha,[9]; [18],0%
same,pest or weed control at 125 g/ha,"[10]; 125 g ai/ha, postemergence, visual injury on 0 to 100 scale (0 no effect, 100 complete control), approx. 10 d, read-out: Foxtail, Giant plant response rating",90%
same,pest or weed control at 31 g/ha,"[10]; Postemergence, 31 g ai/ha, visual injury after approx. 10 d, 0 to 100 scale, 0 no effect, 100 complete control, read-out: Plant response rating, Foxtail, Giant",30%
same,plant injury at 125 g/ha,"corn (Zea mays); 125 g ai/ha, postemergence, visual injury on 0 to 100 scale (0 no effect, 100 complete control), approx. 10 d, read-out: Corn plant response rating",0%
same,"Corn plant response rating (crop injury, 0 = no effect, 100 = complete kill) at 31 g/ha","corn (Zea mays); Postemergence, 31 g ai/ha, visual injury after approx. 10 d, 0 to 100 scale, 0 no effect, 100 complete control",0%
same,pest or weed control at 125 g/ha,"[11]; 125 g ai/ha, postemergence, visual injury on 0 to 100 scale (0 no effect, 100 complete control), approx. 10 d, read-out: Blackgrass plant response rating",0%
same,pest or weed control at 31 g/ha,"[11]; Postemergence, 31 g ai/ha, visual injury after approx. 10 d, 0 to 100 scale, 0 no effect, 100 complete control, read-out: Plant response rating, Blackgrass",0%
same,pest or weed control at 125 g/ha,"[12]; 125 g ai/ha, postemergence, visual injury on 0 to 100 scale (0 no effect, 100 complete control), approx. 10 d, read-out: Ragweed plant response rating",30%
same,pest or weed control at 31 g/ha,"[12]; Postemergence, 31 g ai/ha, visual injury after approx. 10 d, 0 to 100 scale, 0 no effect, 100 complete control, read-out: Plant response rating, Ragweed",0%
same,plant injury at 125 g/ha,"[13]; 125 g ai/ha, postemergence, visual injury on 0 to 100 scale (0 no effect, 100 complete control), approx. 10 d, read-out: Wheat plant response rating",0%
same,plant injury at 31 g/ha,"[13]; Postemergence, 31 g ai/ha, visual injury after approx. 10 d, 0 to 100 scale, 0 no effect, 100 complete control, read-out: Plant response rating, Wheat",0%
same,pest or weed control at 125 g/ha,"[14]; 125 g ai/ha, postemergence, visual injury on 0 to 100 scale (0 no effect, 100 complete control), approx. 10 d, read-out: Pigweed plant response rating",20%
same,pest or weed control at 31 g/ha,"[14]; Postemergence, 31 g ai/ha, visual injury after approx. 10 d, 0 to 100 scale, 0 no effect, 100 complete control, read-out: Plant response rating, Pigweed",0%
same,pest or weed control at 125 g/ha,"[15]; 125 g ai/ha, postemergence, visual injury on 0 to 100 scale (0 no effect, 100 complete control), approx. 10 d, read-out: Barnyardgrass plant response rating",80%
same,pest or weed control at 31 g/ha,"[15]; Postemergence, 31 g ai/ha, visual injury after approx. 10 d, 0 to 100 scale, 0 no effect, 100 complete control, read-out: Plant response rating, Barnyardgrass",40%
same,pest or weed control at 125 g/ha,"Kochia (Kochia scoparia) [16]; 125 g ai/ha, postemergence, visual injury on 0 to 100 scale (0 no effect, 100 complete control), approx. 10 d, read-out: Kochia plant response rating",20%
same,pest or weed control at 31 g/ha,"Kochia (Kochia scoparia) [16]; Postemergence, 31 g ai/ha, visual injury after approx. 10 d, 0 to 100 scale, 0 no effect, 100 complete control, read-out: Plant response rating, Kochia",0%
same,pest or weed control at 125 g/ha,"[17]; 125 g ai/ha, postemergence, visual injury on 0 to 100 scale (0 no effect, 100 complete control), approx. 10 d, read-out: Ryegrass, Italian plant response rating",0%
same,pest or weed control at 31 g/ha,"[17]; Postemergence, 31 g ai/ha, visual injury after approx. 10 d, 0 to 100 scale, 0 no effect, 100 complete control, read-out: Plant response rating, Ryegrass, Italian",0%
